# Reference: ChEMBL document CHEMBL1141619, “Discovery of novel inhibitors of 11beta-hydroxysteroid dehydrogenase type 1 by docking and pharmacophore modeling” (Bioorg Med Chem Lett, 2008)
# Tests used:
# [1] = biological target: 11-beta-hydroxysteroid dehydrogenase 1 (Mus musculus, UniProt P50172); assay: Inhibition of mouse 11beta-HSD1
# [2] = biological target: T1, 11-beta-hydroxysteroid dehydrogenase type 2 (Mus musculus) (UniProt P51661); assay: Inhibition of mouse 11beta-HSD2 at 10 uM
# T1 sequence (whole entry): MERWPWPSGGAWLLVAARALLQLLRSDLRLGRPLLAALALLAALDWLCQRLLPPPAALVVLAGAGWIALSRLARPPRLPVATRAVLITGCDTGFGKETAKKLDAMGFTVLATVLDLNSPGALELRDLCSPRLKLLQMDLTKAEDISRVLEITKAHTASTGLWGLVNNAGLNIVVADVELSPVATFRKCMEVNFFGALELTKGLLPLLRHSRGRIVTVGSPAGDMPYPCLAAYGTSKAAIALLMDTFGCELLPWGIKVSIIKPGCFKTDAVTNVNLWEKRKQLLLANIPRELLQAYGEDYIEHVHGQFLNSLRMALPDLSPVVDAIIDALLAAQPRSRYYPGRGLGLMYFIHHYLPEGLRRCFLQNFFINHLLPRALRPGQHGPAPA
# [3] = biological target: 11-beta-hydroxysteroid dehydrogenase 1 (Mus musculus) (UniProt P50172); assay: Inhibition of mouse 11beta-HSD1 at 10 uM
# Chain of 11-beta-hydroxysteroid dehydrogenase 1 (Mus musculus) (P50172 whole entry, looked up): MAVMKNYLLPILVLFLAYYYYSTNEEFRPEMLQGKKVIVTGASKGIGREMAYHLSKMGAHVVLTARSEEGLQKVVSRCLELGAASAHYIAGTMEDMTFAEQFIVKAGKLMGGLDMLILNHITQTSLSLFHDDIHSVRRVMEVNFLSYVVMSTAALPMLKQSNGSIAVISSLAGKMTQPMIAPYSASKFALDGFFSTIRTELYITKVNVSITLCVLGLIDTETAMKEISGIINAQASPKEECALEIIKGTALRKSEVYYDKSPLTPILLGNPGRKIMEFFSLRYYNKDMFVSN
# Chain of 11-beta-hydroxysteroid dehydrogenase 1 (P50172 whole entry): as the sequence (P50172 whole entry, looked up) above
IC50 [1],inhibition [2],inhibition [3],Structure (SMILES)
0.48 µM,9.1%,,Cc1cc(NS(=O)(=O)c2ccc(NC(=O)c3ccc(C(=O)C(=O)c4ccccc4)cc3)cc2)nc(C)n1
12.5 µM,2.2%,,O=C(CN1C(=O)C2C3c4ccccc4C(c4ccccc43)C2C1=O)Nc1cccc(Cl)c1 (configuration not stated)
2.09 µM,0%,,O=C(CSc1nc2ccc(NC(=O)c3ccccc3Br)cc2s1)NCCc1ccccc1
3.6 µM,3.7%,,CC(C)COC(=O)c1ccc(NC(=O)c2ccc3c(c2)-c2ccccc2C3=O)cc1
6.1 µM,0.8%,,Cc1ccc(S(=O)(=O)N(CC(=O)N2CCCCCC2)c2cc(Cl)ccc2C)cc1
,3.4%,60%,Cc1ccc(C(=O)COC(=O)C(Cc2ccccc2)N2C(=O)c3ccccc3C2=O)cc1 (configuration not stated)
